Experimental data: ChEMBL document CHEMBL2363022, “Malaria Box Schistosomiasis Screening Data” (2013)

Columns and labels:
Assay type in all cases: functional
Design in all cases: scale not given here
Schistosoma mansoni [1] = test system: Schistosoma mansoni
Schistosoma mansoni [2] = test system: Schistosoma mansoni; remark: listed apart in the source
Schistosoma mansoni [3] = test system: Schistosoma mansoni; remark: listed apart in the source

| SMILES | Toxicity (Schistosoma mansoni [1]) | Toxicity (Schistosoma mansoni [2]) | Toxicity (Schistosoma mansoni [3]) |
| --- | --- | --- | --- |
| O=C(NC1CCN(Cc2ccccc2)CC1)c1cc2nc(-c3ccc(Cl)s3)cc(C(F)(F)F)n2n1 | 4 | 0 | 4 |
| c1ccc(-c2ccc(-c3nc4ccccc4[nH]3)cc2)cc1 | 0 | 0 | 0 |
| CC(=O)c1sc(NC(=O)Nc2ccc(C)cc2C)nc1C | 0 | 0 | 0 |
| COc1ccc(C=C2SC(Nc3ccc(F)cc3)=NC2=O)c(OC)c1 | 0 | 0 | 0 |
| COc1ccc(NC(=O)C2c3ccccc3C(=O)N(CC(C)C)C2c2cccs2)cc1Cl (stereo unspecified) | 0 | 0 | 0 |
| O=C(Nc1ccc(Cl)c(Cl)c1)Nc1ccc(Cl)c(Cl)c1 | 3 | 3 | 4 |
| COc1ccccc1CNC(=O)CCn1c(=O)[nH]c2ccccc2c1=O | 0 | 0 | 0 |
| COc1ccc(C(C)=O)cc1N1C(=O)C2C(C1=O)C1(c3ccccc3)C(=O)C2(c2ccccc2)C(c2ccc(C)cc2)=C1c1ccc(C)cc1 (stereo unspecified) | 0 | 0 | 0 |
| Cc1ccc(NC(=O)Nc2cccc(Cl)c2)cc1F | 0 | 1 | 0 |
| CCOc1ccc(-n2cc(-c3ccccc3)c3c(SCc4cc(C)ccc4C)ncnc32)cc1 | 0 | 0 | 0 |
| N#Cc1nc(Cc2cccc3ccccc23)oc1N1CCN(C(c2ccccc2)c2ccccc2)CC1 | 0 | 0 | 0 |
| CCCCOc1ccc(C(=O)Nc2cc(C)on2)cc1 | 0 | 0 | 0 |
| Brc1ccc(Nc2nc3ccccc3nc2Nc2ccc(Br)cc2)cc1 | 4 | 3 | 4 |
| Cn1c(=O)c2cc(C(=O)NCCCN3CCCCCC3)sc2c2ccccc21 | 0 | 0 | 0 |
| O=C(Nc1ccc(Br)cc1)Nc1cccc(Cl)c1 | 0 | 0 | 3 |
| CCN1CCCC1CNc1[nH]cnc2c3cc(Cl)ccc3nc1-2 (stereo unspecified) | 0 | 0 | 0 |
| C[n+]1c2ccccc2nc2ccc(NCCO)cc21 | 0 | 0 | 3 |
| CCOc1ccccc1CN1CCc2nc3cc(C(C)(C)C)nn3c(O)c2C1 | 2 | 0 | 2 |
| O=C(Nc1ccc(-c2nc3ccccc3[nH]2)cc1)c1ccc(Cl)c(Cl)c1 | 0 | 0 | 0 |
| Cc1sc2ncnc(Sc3nc4ccccc4[nH]3)c2c1C | 1 | 1 | 0 |
| Cc1cc(C=C2SC(=Nc3ccccc3)N(C3CCCC3)C2=O)c(C)n1-c1ccc(Cl)cc1 | 0 | 0 | 0 |
| Cc1ccc(-c2cc(C(=O)Nc3ccc(S(=O)(=O)N4CCCCC4)cc3)[nH]n2)c(O)c1 | 0 | 0 | 0 |
| O=C(Nc1ccc(C23CC4CC(CC(c5ccccc5)(C4)C2)C3)cc1)c1cccs1 | 2 | 2 | 2 |

| SMILES | Toxicity (Schistosoma mansoni [1]) | Toxicity (Schistosoma mansoni [2]) | Toxicity (Schistosoma mansoni [3]) |
| --- | --- | --- | --- |
| COc1cccc(C(=O)NC(c2ccc(C)cc2)c2cc(Cl)c3cccnc3c2O)c1 (stereo unspecified) | 4 | 1 | 4 |
| COC(=O)c1ccc(Cl)c2c1C1C=CCC1C(c1cccc3ccccc13)N2 (stereo unspecified) | 0 | 0 | 0 |
| Cc1ccccc1OCCSc1nc2ccc(NC(=O)c3cccs3)cc2s1 | 0 | 0 | 0 |
| COc1cc(SC)ccc1C(=O)N1CCCC(C)C1 (stereo unspecified) | 0 | 0 | 0 |
| CCOC(=O)c1cnc2ccc(Cl)cc2c1NCCCN(C)C | 1 | 1 | 1 |
| CCOC(=O)c1c(NC(=O)c2ccccc2)sc2c(O)c(CN(CC)CC)ccc12 | 0 | 0 | 0 |
| COc1ccc(C(=O)C(CCC(CNC(C)(C)C)C(=O)c2ccc(OC)cc2)CNC(C)(C)C)cc1 (stereo unspecified) | 3 | 0 | 4 |
| CN(C)c1ccc(C=Cc2nc(=O)c3ccccc3o2)cc1 | 0 | 0 | 0 |
| COC(=O)c1ccc(C2C3=C(O)CC(c4ccc(F)cc4)CC3=Nc3ccccc3N2C(=O)c2ccccc2)cc1 (stereo unspecified) | 2 | 0 | 1 |
| CCn1c(CN2CCN(Cc3ccccc3)CC2)nc2cc(NC(=O)c3cccs3)ccc21 | 0 | 0 | 0 |
| Cc1ccc2c(C)nc(Nc3nc(C)cc(-c4ccccc4)n3)nc2c1 | 0 | 0 | 0 |
| CCOc1ccc(-c2nc(NC(=O)c3cccc(S(C)(=O)=O)c3)sc2C)cc1 | 0 | 0 | 0 |
| CCCCCC(=O)N1c2ccccc2N=C2CC(c3ccc(OC)c(OC)c3)CC(O)=C2C1c1ccc(C(F)(F)F)cc1 (stereo unspecified) | 0 | 0 | 0 |
| COc1ccc(C2C(C(=O)Nc3cccc(OC)c3)c3ccccc3C(=O)N2C2CCCCC2)cc1 (stereo unspecified) | 0 | 0 | 0 |
| CCOc1c(Cl)cc(CNCC(O)c2ccccc2)cc1OC (stereo unspecified) | 0 | 0 | 0 |
| C=CCc1c(C)nc2ccccc2c1O | 0 | 0 | 0 |
| Cc1ccc(-c2cc3nc4c(c(O)n3n2)CCCC4)cc1 | 0 | 0 | 0 |
| CCC1(C)CC(CCNCc2ccccc2O)(c2ccc(C)cc2)CCO1 (stereo unspecified) | 2 | 2 | 4 |
| O=c1nc(C=Cc2ccc(Cl)cc2)oc2ccccc12 | 0 | 2 | 0 |
| CCN(CC)CCNc1ccnc2cc(Cl)ccc12 | 0 | 0 | 0 |
| COc1cc2cc(C(=O)Nc3ccccc3)c(N)nc2cc1OC | 0 | 0 | 2 |
| COCCNC(=O)c1ccc(OC2CCN(Cc3ccc(F)c(F)c3)CC2)c(Cl)c1 | 0 | 0 | 0 |
| CCOc1ccc(CN2CCN(CC(O)COc3ccc(OCC(O)CN4CCN(Cc5ccc(OCC)cc5)CC4)cc3)CC2)cc1 (stereo unspecified) | 4 | 3 | 4 |

| SMILES | Toxicity (Schistosoma mansoni [1]) | Toxicity (Schistosoma mansoni [2]) | Toxicity (Schistosoma mansoni [3]) |
| --- | --- | --- | --- |
| O=C(O)C1Cc2c([nH]c3ccccc23)C(c2ccc(Cl)cc2Cl)N1 (stereo unspecified) | 0 | 0 | 0 |
| CCCCOC(=O)c1ccc(Nc2cc(C)nc3ccc(OC)cc23)cc1 | 0 | 2 | 4 |
| COc1cc(C(=O)Nc2ccc(-c3nc4ccccc4[nH]3)cc2)cc(OC)c1OC | 0 | 0 | 0 |
| CCOc1ccc(/C=C/c2nc(=O)c3ccccc3o2)cc1 | 0 | 0 | 0 |
| CCOC(=O)c1cnc2ccc(OC)cc2c1Nc1ccc(N2CCN(C)CC2)cc1 | 4 | 0 | 4 |
| CCCc1cc(O)c2c3c(c(=O)oc2c1)CN(C)CC3 | 0 | 0 | 0 |
| COc1ccccc1C(=O)ON=C(N)Cc1cccc2ccccc12 | 3 | 1 | 3 |
| Oc1c2c(nc3cc(-c4ccccc4)nn13)CCCC2 | 0 | 0 | 0 |
| N=c1n(CCN2CCCCC2)c2ccccc2n1CC(=O)c1ccc(Cl)c(Cl)c1 | 4 | 3 | 4 |
| CCCn1c(=N)c(C(=O)NC2CCCCC2)cc2c(=O)n3cccc(C)c3nc21 | 0 | 0 | 0 |
| Cc1ccc(C)c(Cn2c(N3CCC(C(=O)NCc4cccs4)CC3)nc3ccccc32)c1 | 0 | 0 | 0 |
| O=C(Nc1cccc(-c2nc3ccccc3[nH]2)c1)c1cccc(NC(=O)c2ccco2)c1 | 0 | 0 | 1 |
| c1ccc(CNc2nc(Nc3ccccc3)nc3ccccc23)cc1 | 2 | 2 | 2 |
| Nc1ccc(-c2nc3cc(Cc4ccc5[nH]c(-c6ccc(N)cc6)nc5c4)ccc3[nH]2)cc1 | 1 | 1 | 1 |
| Cc1ccc(-c2cc3c(nn2)-c2ccccc2C3=O)cc1 | 0 | 0 | 0 |
| COc1ccc(C2NCCc3c2[nH]c2ccccc32)cc1CN1CCN(c2ccc(F)cc2)CC1.Cl (stereo unspecified) | 4 | 3 | 4 |
| O=C(Nc1ccc(N2CCCCC2)c(Cl)c1)c1ccc(Br)o1 | 0 | 0 | 0 |
| COc1ccc(-c2nonc2NC(=O)c2cccc(Cl)c2)cc1OC | 0 | 0 | 0 |
| COCCN(C(=O)Cc1cccs1)C(C(=O)NCc1ccc(OC)cc1)c1ccc(C(C)C)cc1 (stereo unspecified) | 0 | 0 | 0 |
| CCN(CC)c1cc(C)c2cc(NC(=O)c3cccc(OC)c3)ccc2n1 | 0 | 2 | 0 |
| COc1ccc(C(=O)Nc2nonc2-c2ccc(OC)c(OC)c2)cc1Cl | 0 | 0 | 0 |
